For this experiment, the system named is HCV genotype 1b replicon. Nature of the experiment: HCV replicon assay, cell ELISA with antibody to replicon-encoded NS3/4A (genotype 1b replicon). It is filed as cell-based, hepatitis C virus. The settings on record: Hepatitis C virus, 96 h, read-out: Replicon 1b IC50 (nM), HCV genotype 1b replicon cells, 96 hours incubation, NS3/4A ELISA readout. On the procedure: The HCV NS5B inhibitory activity of the present compounds may be tested using assays known in the art. The HCV NS5B polymerase inhibitors described herein have activities in a genotype 1b replicon assay as described in the Examples. The assay is performed by incubating a replicon harboring cell-line in the presence of inhibitor for a set period of time and measuring the effect of the inhibitor on HCV replicon replication either directly by quantifying replicon RNA level, or indirectly by measuring enzymatic activity of a co-encoded reporter enzyme such as luciferase or β-lactamase. By performing a series of such measurements at different inhibitor concentrations, the effective inhibitory concentration of the inhibitor (EC50 or EC90) is determined. See Jan M. Vrolijk et al., A replicons-based bioassay for the measurement of interferons in patients with chronic hepatitis C, 110 J. VIROLOGICAL METHODS 201 (2003). Such assays may also be run in an automated format for high through-put screening. See Paul Zuck et al., A cell-based β-lactamase reporter gene assay for the identification of inhibitors of hepatitis C virus replication, 334 ANALYTICAL BIOCHEMISTRY 344 (2004).
Measurement of inhibition by compounds was performed using the HCV replicon system. Several different replicons encoding different HCV genotypes or mutations were used. In addition, potency measurements were made using different formats of the replicon assay, including different ways of measurements and different plating formats. See Jan M. Vrolijk et al., A replicons-based bioassay for the measurement of interferons in patients with chronic hepatitis C, 110 J. VIROLOGICAL METHODS 201 (2003); Steven S. Carroll et al., Inhibition of Hepatitis C Virus RNA Replication by 2′-Modified Nucleoside Analogs, 278(14) J. BIOLOGICAL CHEMISTRY 11979 (2003). However, the underlying principles are common to all of these determinations, and are outlined below.
Stable neomycin phosphotransferase encoding replicons-harboring cell lines were used, so all cell lines were maintained under G418 selection prior to the assay. Potency was determined using a cell ELISA assay with an antibody to the replicons encoded NS3/4a protease. See Caterina Trozzi et al., In Vitro Selection and Characterization of Hepatitis C Virus Serine Protease Variants Resistant to an Active-Site Peptide Inhibitor, 77(6) J. Virol. 3669 (2003). To initiate an assay, replicon cells were plated in the presence of a dilution series of test compound in the absence of G418. Typically, the assays were performed in a 96-well plate formate for manual operation, or a 384-well plate format for automated assay. Replicon cells and compound were incubated for 96 hours. At the end of the assay, cells were washed free of media and compound, and the cells were then lysed. RNA was quantified indirectly through detection of replicon-encoded NS3/4A protein levels, through an ELISA-based assay with an antibody specific for NS3/4A. IC50 determinations were calculated as a percentage of a DMSO control by fitting the data to a four-parameter fit function and the data obtained is provided in the table below.
Turning to `CNC(=O)c1c(-c2ccc(F)cc2)oc2cc(N(C)S(C)(=O)=O)c(-c3ccccc3OC)cc12` [Example 79, 2-(4-fluorophenyl)-5-(2-methoxyphenyl)-N-methyl-6-[methyl (methylsulfonyl)amino]-1-benzofuran-3-carboxamide], the IC50 worked out at 320 nM.

Regarding `CNC(=O)c1c(-c2ccc(F)cc2)oc2cc(N(C)S(C)(=O)=O)c(-c3ccccc3C)cc12` [Example 80, 2-(4-fluorophenyl)-N-methyl-6-[methyl (methylsulfonyl)amino]-5-(2-methylphenyl)-1-benzofuran-3-carboxamide], the IC50 was determined as 241 nM.

With `CNC(=O)c1c(-c2ccc(F)cc2)oc2cc(N(C)S(C)(=O)=O)c(-c3cccc(C)c3)cc12` [Example 81, 2-(4-fluorophenyl)-N-methyl-6-[methyl (methylsulfonyl)amino]-5-(3-methylphenyl)-1-benzofuran-3-carboxamide], the IC50 was 117 nM.

As for `CNC(=O)c1c(-c2ccc(F)cc2)oc2cc(N(C)S(C)(=O)=O)c(-c3ccc(C)cc3)cc12` [Example 82, 2-(4-fluorophenyl)-N-methyl-6-[methyl (methylsulfonyl)amino]-5-(4-methylphenyl)-1-benzofuran-3-carboxamide], the IC50 is 53 nM.

As to `CNC(=O)c1c(-c2ccc(F)cc2)oc2cc(N(C)S(C)(=O)=O)c(-c3ccccc3N(C)S(C)(=O)=O)cc12` [Example 83, 2-(4-fluorophenyl)-N-methyl-6-[methyl (methylsulfonyl)amino]-5-{2-[methyl (methylsulfonyl)amino]phenyl}-1-benzofuran-3-carboxamide], the IC50 amounted to 232 nM.

As for `CNC(=O)c1c(-c2ccc(F)cc2)oc2cc(N(C)S(C)(=O)=O)c(-c3cccc(C#N)c3)cc12` [Example 84, 5-(3-cyanophenyl)-2-(4-fluorophenyl)-N-methyl-6-[methyl (methylsulfonyl)amino]-1-benzofuran-3-carboxamide], the IC50 is 107 nM.

Regarding `CNC(=O)c1c(-c2ccc(F)cc2)oc2cc(N(C)S(C)(=O)=O)c(-c3ccc(C#N)cc3)cc12` [Example 85, 5-(4-cyanophenyl)-2-(4-fluorophenyl)-N-methyl-6-[methyl (methylsulfonyl)amino]-1-benzofuran-3-carboxamide], the IC50 amounted to 43 nM.

For `CNC(=O)c1c(-c2ccc(F)cc2)oc2cc(N(C)S(C)(=O)=O)c(-c3cccc(F)c3)cc12` [Example 86, 5-(3-fluorophenyl)-2-(4-fluorophenyl)-N-methyl-6-[methyl (methylsulfonyl)amino]-1-benzofuran-3-carboxamide], the IC50 was determined as 28 nM.

For the compound `CNC(=O)c1c(-c2ccc(F)cc2)oc2cc(N(C)S(C)(=O)=O)c(-c3ccc(F)cc3)cc12` [Example 87, 2,5-bis(4-fluorophenyl)-N-methyl-6-[methyl (methylsulfonyl)amino]-1-benzofuran-3-carboxamide], the IC50 was found to be 39 nM.

Take `CNC(=O)c1c(-c2ccc(F)cc2)oc2cc(N(C)S(C)(=O)=O)c(-c3cccc(OC)c3)cc12` [Example 88, 2-(4-fluorophenyl)-5-(3-methoxyphenyl)-N-methyl-6-[methyl (methylsulfonyl)amino]-1-benzofuran-3-carboxamide]: the IC50 worked out at 52 nM.

Consider `CNC(=O)c1c(-c2ccc(F)cc2)oc2cc(N(C)S(C)(=O)=O)c(-c3ccc(OC)cc3)cc12` [Example 89, 2-(4-fluorophenyl)-5-(4-methoxyphenyl)-N-methyl-6-[methyl (methylsulfonyl)amino]-1-benzofuran-3-carboxamide], for which the IC50 was 23 nM.

With `CONC(=O)c1c(-c2ccc(F)cc2)oc2cc(N(C)S(C)(=O)=O)c(-c3ccccc3F)cc12` [Example 90, 5(2-fluorophenyl)-2-(4-fluorophenyl)-N-methoxy-6-[methyl(methylsulfonyl)amino]-1-benzofuran-3-carboxamide], the IC50 is 197 nM.

The record behind these values is US20120328569A1, “INHIBITORS OF HEPATITIS C VIRUS NS5B POLYMERASE” (priority 2010, published 2012).
